Assays:
[1] = system: BECN1, SQSTM1/p62, (phospho)p42/44 MAPK; experiment: Immunoblot of autophagy and inflammation markers in CFBE cells; assay type: cell-based; conditions: 0.1 μM
Procedure: Cell lines experiments. CFBE41l- and 16HBE14o-cells were cultured in Minimum Essential Medium (MEM) with Earle's salt, 200 mM L-Glutamine, 10% FBS and penicillin/streptomycin. […]
(§1) The proteins of cell lines lysates or lung or small intestine homogenates, obtained from treated and untreated cells or mice, were quantified by a Bio-Rad protein assay to ensure equal protein loading before immunoblot analysis. Fifty micrograms of proteins were loaded in each lane. Antibodies against SQSTM1, (Sigma Aldrich,P0067) 1:1000, BECN1 (Abcam, ab58878), 1:1000, CFTR clone CF3 (Abcam, ab2784) 1:1000 or anti-CFTR antibody 660 1:1000, Phospho-p44/42 MAPK (Erk1/2) (Thr202/Tyr204) (Cell Signaling Technology, #91101) 1:1000, TG2 (CUB7402, NEOMARKER) 1:1000 were used. Normalization was performed by probing the membrane with anti-β-actin (Cell Signaling, #4970) 1:1000 or anti-α-tubulin (Cell Signaling Technology, 2148) 1:1000.

[2] = system: BECN1, SQSTM1/p62, (phospho)p42/44 MAPK; experiment: Immunoblot of autophagy and inflammation markers in nasal primary cells; assay type: cell-based, human; conditions: 0.1 μM
Excerpt: (§2) Freshly isolated brushed nasal epithelial cells were collected by nasal brushing, as previously described (21, 21) from 10 F508del-CFTR homozygous CF patients and from 5 non-CF healthy volunteers recruited from staff at the same time points. Both patients and healthy volunteers gave written informed consent. […] Brushes with cells were immediately transferred into RPMI 1640 medium (Invitrogen) containing 1% penicillin-streptomycin (Lonza, 17-602E), in 15-ml sterilized tubes. The tubes were incubated at 37° C. for 2 h on a thermo shaker, to remove all cell from brushes; the brushes were then removed and the cells centrifuged at 800×g (2000 rpm) for 20 min. The supernatant fractions were discarded and the cell pellet treated with […] of trypsin-versene (EDTA) solution (Lonza, 17-161) for 4 min at 37° C. to disaggregate possible cell clusters. Trypsin solution was inactivated by adding 3 ml of serum-free Bronchial Epithelial cell Growth Medium BEGM (Clonetics, Lonza, CC3170). After centrifugation at 800×g (2000 rpm) for 10 min, cells were placed in CELLC T 25 flasks (Sarstedt Ltd, CS300) with 10 ml of BEGM medium. Nonspecific epithelial cells were removed during the daily cell washing and medium changes.
as §1

CFTR [3] = biological target: CFTR (Homo sapiens, UniProt P13569, DEL508-508); experiment: Immunoblot detection of CFTR in nasal primary cells; assay type: cell-based; design: Freshly isolated brushed nasal epithelial cells were collected by nasal brushing; endogenous in cells; host or cells: primary nasal epithelial cells from F508del-homozygous CF patients
Excerpt: as §2, §1

F508delCFTR = F508delCFTR (Homo sapiens, UniProt P13569, DEL508-508); experiment: SPQ assay in CFBE41o- cells transfected with F508delCFTR; assay type: cell-based; design: expressed in transfected cells; host or cells: CFBE41o- cells
Procedure: The compounds of formula I have marked effects on CFTR function. A representative number of compounds of formula I (Compounds IE1-IE4; Table I) were tested in comparison to cysteamine and amifostine through SPQ assay in F508delCFTR homozygous bronchial epithelial cell lines (CFBE41o-) transfected with F508delCFTR (FIG. 1) and in ex vivo in nasal cells collected by nasal brushing from CF patients (FIGS. 2A and B). Cell lines experiments. CFBE41l- and 16HBE14o-cells were cultured in Minimum Essential Medium (MEM) with Earle's salt, 200 mM L-Glutamine, 10% FBS and penicillin/streptomycin. CFBE41o-cells were transfected with AF508-CFTR at 37° C. and incubated for 18 h with cysteamine (250 μM) or different concentration of IE1.

CFTR [4] = biological target: T1, CFTR (Mus musculus, UniProt P26361, DEL508-508); experiment: Ussing chamber CFTR function in CftrF508del mice; assay type: in vivo
T1 construct: the Ussing chamber experiments (on small intestinal tissues); from tissue; host or cells: small intestine (Ussing chamber); lung and small intestine homogenates (immunoblot) of CftrF508del mice
Procedure: Driven by the positive outcome of the cell lines (immortalized and primary nasal cell) experiments, we next investigated the possibility that IE1 could rescue the CFTR protein and function as well as re-establish the autophagy pathway in CF mice model. To test this hypothesis, we used F508del-Cftr homozygous (CftrF508del\F508del) mice and control mice (Cftr WT). CftrF508del mice were administered intraperitoneally (i.p.) for 5 d with cysteamine or different concentrations of IE1 (FIG. 7). […] Next, CftrF508del mice were administered intraperitoneally (i.p.) for 5 d with cysteamine or with 3 different concentrations of IE1 (0.05M, 0.025M or 0.0125M) followed by 10 d or 20 d of vehicle only (FIG. 9).
CF mice homozygous for the delF508-CFTR mutation (abbreviated CftrF508del) in the 129/FVB outbred background (CftrtmlEUR, F508del, FVB/129) were obtained from Erasmus Medical Center Rotterdam, The Netherlands (CF coordinated action program EU FP6 LSHM-CT-2005-018932). These studies and procedures were approved by the local Ethics Committee for Animal Welfare (IACUC No 713). Young adult CF mice and their wild-type (wt) littermates were housed in static isolator cages at the animal care specific pathogen-free facility of Charles River (Calco, Italy). […]

Sequence of F508delCFTR (P13569 with tags, fused parts or gaps DEL508-508): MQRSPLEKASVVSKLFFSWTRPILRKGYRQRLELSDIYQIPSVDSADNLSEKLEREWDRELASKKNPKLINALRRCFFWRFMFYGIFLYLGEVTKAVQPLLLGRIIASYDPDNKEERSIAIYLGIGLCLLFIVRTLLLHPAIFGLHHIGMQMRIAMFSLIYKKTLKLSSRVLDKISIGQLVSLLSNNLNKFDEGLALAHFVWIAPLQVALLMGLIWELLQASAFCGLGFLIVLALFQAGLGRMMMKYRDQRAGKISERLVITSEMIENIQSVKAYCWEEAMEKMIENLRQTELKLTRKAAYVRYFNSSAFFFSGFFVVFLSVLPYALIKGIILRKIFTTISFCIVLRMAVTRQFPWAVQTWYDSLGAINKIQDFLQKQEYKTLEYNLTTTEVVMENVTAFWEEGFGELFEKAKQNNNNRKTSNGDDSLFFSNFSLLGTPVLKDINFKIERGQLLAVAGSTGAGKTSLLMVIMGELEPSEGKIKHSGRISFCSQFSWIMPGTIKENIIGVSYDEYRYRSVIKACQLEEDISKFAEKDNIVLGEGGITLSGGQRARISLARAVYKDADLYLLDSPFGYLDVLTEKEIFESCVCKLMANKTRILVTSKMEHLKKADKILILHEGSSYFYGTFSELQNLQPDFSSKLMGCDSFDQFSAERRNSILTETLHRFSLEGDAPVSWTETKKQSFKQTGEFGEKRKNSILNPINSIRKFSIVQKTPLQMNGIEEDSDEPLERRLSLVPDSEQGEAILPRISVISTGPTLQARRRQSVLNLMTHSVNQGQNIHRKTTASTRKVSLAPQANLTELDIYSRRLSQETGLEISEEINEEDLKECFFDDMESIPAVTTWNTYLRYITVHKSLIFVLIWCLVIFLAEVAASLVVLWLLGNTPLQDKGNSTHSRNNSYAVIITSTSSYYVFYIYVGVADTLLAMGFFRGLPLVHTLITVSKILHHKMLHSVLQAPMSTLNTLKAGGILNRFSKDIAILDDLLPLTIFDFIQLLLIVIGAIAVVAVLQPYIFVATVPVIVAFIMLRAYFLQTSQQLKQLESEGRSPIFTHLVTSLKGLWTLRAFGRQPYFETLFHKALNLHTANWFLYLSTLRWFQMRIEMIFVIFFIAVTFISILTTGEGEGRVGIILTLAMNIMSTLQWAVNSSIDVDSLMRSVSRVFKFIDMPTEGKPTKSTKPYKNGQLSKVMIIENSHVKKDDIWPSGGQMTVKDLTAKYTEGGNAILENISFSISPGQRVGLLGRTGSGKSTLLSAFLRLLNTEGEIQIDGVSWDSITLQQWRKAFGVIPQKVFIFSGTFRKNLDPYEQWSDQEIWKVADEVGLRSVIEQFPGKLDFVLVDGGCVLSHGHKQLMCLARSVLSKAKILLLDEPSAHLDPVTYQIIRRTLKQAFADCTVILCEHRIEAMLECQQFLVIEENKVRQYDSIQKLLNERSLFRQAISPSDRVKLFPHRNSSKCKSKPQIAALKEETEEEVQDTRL
Sequence of CFTR (Homo sapiens, UniProt P13569, DEL508-508) (P13569 with tags, fused parts or gaps DEL508-508): as above
T1 sequence (P26361 with tags, fused parts or gaps DEL508-508): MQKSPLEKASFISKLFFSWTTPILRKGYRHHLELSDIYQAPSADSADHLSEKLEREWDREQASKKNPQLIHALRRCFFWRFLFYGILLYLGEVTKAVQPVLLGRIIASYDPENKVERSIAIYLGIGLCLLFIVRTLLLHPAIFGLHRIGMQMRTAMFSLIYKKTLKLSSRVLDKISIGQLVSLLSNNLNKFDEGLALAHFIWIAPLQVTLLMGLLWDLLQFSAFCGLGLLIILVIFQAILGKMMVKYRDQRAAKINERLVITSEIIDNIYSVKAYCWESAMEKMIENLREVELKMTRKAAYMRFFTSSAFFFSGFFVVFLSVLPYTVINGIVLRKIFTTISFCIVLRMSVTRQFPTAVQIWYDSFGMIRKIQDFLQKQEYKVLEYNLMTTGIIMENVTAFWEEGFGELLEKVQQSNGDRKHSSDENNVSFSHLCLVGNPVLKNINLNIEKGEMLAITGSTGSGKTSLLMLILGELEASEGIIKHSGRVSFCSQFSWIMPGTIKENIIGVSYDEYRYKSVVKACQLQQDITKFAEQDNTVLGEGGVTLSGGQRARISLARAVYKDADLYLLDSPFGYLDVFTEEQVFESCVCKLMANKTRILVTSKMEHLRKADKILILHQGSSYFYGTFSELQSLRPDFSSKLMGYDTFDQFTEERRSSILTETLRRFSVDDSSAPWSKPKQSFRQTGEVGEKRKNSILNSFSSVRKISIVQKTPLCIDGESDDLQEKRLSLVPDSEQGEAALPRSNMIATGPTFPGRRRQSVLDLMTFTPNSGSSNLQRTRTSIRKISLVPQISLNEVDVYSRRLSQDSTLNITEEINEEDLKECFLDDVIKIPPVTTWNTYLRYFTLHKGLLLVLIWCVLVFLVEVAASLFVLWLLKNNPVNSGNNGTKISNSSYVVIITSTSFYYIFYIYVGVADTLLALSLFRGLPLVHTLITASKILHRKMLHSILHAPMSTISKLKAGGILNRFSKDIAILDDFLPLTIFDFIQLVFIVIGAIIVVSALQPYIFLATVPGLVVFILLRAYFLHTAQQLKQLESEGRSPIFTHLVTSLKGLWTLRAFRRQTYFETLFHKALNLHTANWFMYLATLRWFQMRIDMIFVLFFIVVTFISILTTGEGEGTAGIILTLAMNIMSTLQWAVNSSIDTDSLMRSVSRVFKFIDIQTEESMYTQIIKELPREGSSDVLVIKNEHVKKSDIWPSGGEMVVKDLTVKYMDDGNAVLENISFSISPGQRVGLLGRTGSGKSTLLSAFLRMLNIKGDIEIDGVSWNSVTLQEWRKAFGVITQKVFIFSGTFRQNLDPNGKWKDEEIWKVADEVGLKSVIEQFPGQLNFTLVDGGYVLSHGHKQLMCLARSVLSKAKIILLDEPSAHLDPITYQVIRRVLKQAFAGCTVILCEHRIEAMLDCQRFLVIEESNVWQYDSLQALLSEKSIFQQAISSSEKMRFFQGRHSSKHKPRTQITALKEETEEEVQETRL

- PM-resident CFTR protein after washout (CFTR [3]; 0.1 μM, 24 h of washout): maintained
- PM-resident CFTR protein after washout (CFTR [3]; 48 h of washout): decreases
- PM-resident CFTR protein after washout with EGCG added (CFTR [3]; 48 h of washout, EGCG added): completely maintained
- Concentration lower than cysteamine for equal restoration of CFTR function (F508delCFTR; 0.1 μM vs 250 μM): more than 2500 fold
- % Function vs 16HBE (F508delCFTR; 0.1 μM, CFBE41o- transfected with F508delCFTR): 72%
- CFTR function after wash out with EGCG added (F508delCFTR; 48 h after wash out, epigallocatechin gallate added, CFBE cells): effect is preserved
- CFTR function after wash out (F508delCFTR; 48 h after wash out, CFBE cells): loses its efficacy
- CFTR function after wash out (F508delCFTR; up to 24 h after wash out, CFBE cells): able to maintain CFTR function
- Sustaining CFTR function after wash out, compared with cysteamine (CFTR [4]; i.p. 5 d at 0.05M, 0.025M or 0.0125M, then 20 d of vehicle only): more effective than cysteamine
- Rescue of CFTR function (Ussing chamber, small intestinal tissues) (CFTR [4]; i.p. for 5 d, IE1 concentration 0.05 to 0.00125): highly effective
Compound: NCCCS [IE1, 3-aminopropane-1-thiol]
- BECN1 level [1]: able to restore BECN1
- Inflammation biomarkers (phospho)p42/44 MAPK [1]: decrease
- p62 levels [1]: reduce p62 levels
- Effect on (phospho)p42/44 MAPK after 48 h in presence of EGCG ([1]; 48 h, EGCG): maintained
- Effect on BECN1 and p62 after 48 h with EGCG addition ([1]; 48 h, EGCG addition): preserved
- Effect on (phospho)p42/44 MAPK after 48 h ([1]; after 48 h): completely lost
- Effect on BECN1 and p62 after 48 h ([1]; after 48 h): disappears
- BECN1 level [2]: able to restore BECN1
- Inflammation biomarkers (phospho)p42/44 MAPK [2]: decrease
- p62 levels [2]: reduce p62 levels
- Effect on (phospho)p42/44 MAPK after 48 h in presence of EGCG ([2]; 48 h, EGCG): maintained
- Effect on BECN1 and p62 after 48 h with EGCG addition ([2]; 48 h, EGCG addition): preserved
- Effect on (phospho)p42/44 MAPK after 48 h ([2]; after 48 h): completely lost
- Effect on BECN1 and p62 after 48 h ([2]; after 48 h): disappears
- PM-resident CFTR protein (CFTR [3]; 0.1 μM): a sizeable fraction of the channel resided at the PM

Source: US20200179312A1, “ANALOGUES OF CYSTEAMINE AS THERAPEUTIC AGENTS FOR CYSTIC FIBROSIS” (I.E.R.F.C. EUROPEAN INSTITUTE FOR CYSTIC FIBROSIS RESEARCH, priority 2018, published 2020)
